Laboratory results published in patent US11440932B2, “Surfactant compounds-clips for extraction and stabilization in solution of membrane proteins” (CENTRE NATIONAL DE LA RECHERCHE SCIENTIFIQUE, priority 2017, dated 2022).

Tests used:
BmrA [1] = target: T1, BmrA (Bacillus subtilis, UniProt O06967); experiment: Size exclusion chromatography of BmrA after detergent exchange; settings: Superdex 200 5/150, 2 CMC of detergent, 0.3 ml/min
T1 construct: His tag; made in house; host or cells: E. coli C41(DE3)
T1 sequence (O06967 whole entry): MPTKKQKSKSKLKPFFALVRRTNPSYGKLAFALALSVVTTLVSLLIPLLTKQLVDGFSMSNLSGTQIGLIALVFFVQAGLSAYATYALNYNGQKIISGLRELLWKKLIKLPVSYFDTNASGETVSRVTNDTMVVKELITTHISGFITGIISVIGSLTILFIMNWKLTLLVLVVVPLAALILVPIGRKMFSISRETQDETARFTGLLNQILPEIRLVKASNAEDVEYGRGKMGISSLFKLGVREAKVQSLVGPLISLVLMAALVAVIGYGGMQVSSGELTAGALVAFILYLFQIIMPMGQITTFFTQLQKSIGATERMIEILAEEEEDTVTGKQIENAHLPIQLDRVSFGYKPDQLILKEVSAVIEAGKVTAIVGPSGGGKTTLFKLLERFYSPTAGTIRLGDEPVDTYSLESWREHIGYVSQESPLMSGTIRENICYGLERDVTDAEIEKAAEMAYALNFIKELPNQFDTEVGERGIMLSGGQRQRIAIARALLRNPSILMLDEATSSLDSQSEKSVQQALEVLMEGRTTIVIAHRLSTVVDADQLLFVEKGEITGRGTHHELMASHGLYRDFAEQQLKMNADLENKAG
Description: The membrane fraction was extracted and purified in DDM by Ni-NTA metal affinity and Superdex 200 size exclusion, before being reloaded on Ni-NTA in order to exchange the DDM either with itself or with the compound 3.7c. Each pool was subsequently loaded onto a 3 ml Superdex S200 5/150 size exclusion column and eluted in the presence of 2 CMC of the same detergent, as indicated. The proteins are detected by absorbance at 280 nm.
The capacity of the compounds of the invention to maintain the membrane proteins in a native state was exemplified with the compound 3.7c of the invention, monitored by size exclusion chromatography and compared to the reference detergent DDM.
Procedure: BmrA was extracted in DDM and purified by Ni-NTA affinity chromatography as described in example 13, then loaded onto a Superdex 200 10/300 size exclusion column and eluted with 50 mM Hepes-HCl pH 8.0, 100 mM NaCl, 0.4 mM DDM (2×CMC). The fractions containing BmrA were pooled and separated into several aliquots (˜100 μg) kept at 4° C. One aliquot was subsequently reloaded onto an affinity column containing 1 ml of resin. The DDM was then exchanged against 10 volumes of Hepes-NaCl buffer containing either 2 CMC of DDM (control experiment) or 2 CMC of compound 3.7c (2 mM). BmrA was subsequently eluted in the respective buffers with 100 mM of imidazole added. The fractions containing the proteins were combined and concentrated on 50 kDa amicon (regenerated cellulose) to 50 μl, and were then deposited on a 3 ml Superdex 200 5/150 size exclusion column, equilibrated in 50 mM Hepes-HCl pH 8.0, 100 mM NaCl, and 2 CMC of DDM (0.4 mM) or 3.7c (2 mM). The elution was subsequently carried out at 0.3 ml/min in the respective buffers and the BmrA detected at 280 nm.

AcrB = target: T2, AcrB (Escherichia coli, UniProt P31224); experiment: Extraction of AcrB from membranes (SDS-PAGE of supernatant); design: species or system bacterial; same expression system (E. coli C41DE3); settings: detergent 10 g/l unless indicated otherwise; 2 h at 4° C.
T2 construct: made in house; host or cells: E. coli C41(DE3)
T2 sequence (P31224 whole entry): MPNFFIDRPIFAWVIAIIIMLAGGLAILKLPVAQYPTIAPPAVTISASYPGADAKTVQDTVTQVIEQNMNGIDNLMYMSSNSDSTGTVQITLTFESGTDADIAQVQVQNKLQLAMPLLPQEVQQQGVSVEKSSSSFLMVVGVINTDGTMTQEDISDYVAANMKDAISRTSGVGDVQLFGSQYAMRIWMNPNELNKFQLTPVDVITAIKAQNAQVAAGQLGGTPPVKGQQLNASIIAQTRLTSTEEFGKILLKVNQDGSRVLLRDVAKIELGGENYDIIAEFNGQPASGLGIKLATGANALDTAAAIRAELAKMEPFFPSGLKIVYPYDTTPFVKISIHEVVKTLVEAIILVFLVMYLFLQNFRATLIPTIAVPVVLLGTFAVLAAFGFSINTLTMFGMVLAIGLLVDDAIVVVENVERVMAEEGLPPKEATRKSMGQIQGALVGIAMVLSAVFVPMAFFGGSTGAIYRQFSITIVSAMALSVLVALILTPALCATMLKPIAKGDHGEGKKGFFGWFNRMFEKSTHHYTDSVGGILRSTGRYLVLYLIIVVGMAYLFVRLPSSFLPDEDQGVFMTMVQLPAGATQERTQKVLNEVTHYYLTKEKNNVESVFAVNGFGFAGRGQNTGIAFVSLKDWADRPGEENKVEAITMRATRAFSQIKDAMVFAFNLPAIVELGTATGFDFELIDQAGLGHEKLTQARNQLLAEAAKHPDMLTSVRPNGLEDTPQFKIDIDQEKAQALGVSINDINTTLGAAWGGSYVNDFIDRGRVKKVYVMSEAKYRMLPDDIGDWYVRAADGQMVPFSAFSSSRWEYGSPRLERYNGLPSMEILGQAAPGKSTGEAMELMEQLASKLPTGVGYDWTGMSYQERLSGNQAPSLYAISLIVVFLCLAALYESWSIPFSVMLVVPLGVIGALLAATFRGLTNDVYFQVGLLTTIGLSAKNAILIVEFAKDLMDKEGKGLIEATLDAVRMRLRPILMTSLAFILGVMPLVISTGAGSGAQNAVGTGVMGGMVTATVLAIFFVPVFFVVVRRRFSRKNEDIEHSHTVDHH
Description: (§1) FIG. 6 depicts the extraction of the membrane proteins BmrA (panels A and C) and AcrB (panels B and D) using commercial detergents and the molecules of the invention (panels A and B, from left to right): SDS, DDM, FC12, TX100, compounds of the invention 1.4, 1.5, 2.3a, 2.3b, 2.3c, 2.3d, 2.3e, 2.3f, 2.3g, 2.3h, 2.3i, 3.7a, 3.7b; panel C: compounds of the invention 3.7c 0.8%, 3.7d 0.16%, 3.7e 0.8%, 3.7f 0.3%, 3.7g 0.4%, 3.7h 0.2%, 3.7i 0.07%, 3.7j 0.09%, 3.7k, 3.7l, 0.25%, 3.9a, 4.5a, 4.5b, 4.5c, 4.5d 0.34%, 4.6a, 4.6b, 4.6c, 4.6d, 5.3a, 5.3b, 5.3c 0.3%, 5.3d 0.3%; panel D: 3.7c, 3.7d, 3.7e, 3.7f, 3.7h, 3.7i 0.1%, 3.7j, 3.7k, 3.7l, 3.9a, 4.5a, 4.5b, 4.5c, 4.5d, 4.6a, 4.6b, 4.6c, 4.6d. The detergents are added at 10 g/l (1%), unless indicated otherwise. The equivalent of 20 μg of proteins of the extracted fraction after centrifugation at 100 000×g for 30 min is deposited on 10% SDS-PAGE, stained with Coomassie blue after migration. BmrA migrates in its monomeric form to the level of the 55 kDa band; AcrB migrates in its monomeric form to the level of the 100 kDa band. SDS=sodium dodecyl sulfate; DDM=β-D-dodecyl maltoside; FC12=foscholine-12; TX100=triton X-100.
(§2) The extraction capacity of the detergents of the series is tested on membranes in which BmrA or AcrB are strongly expressed. The extraction with the clips (molecules of the invention) is compared to that obtained with commercial detergents, used as reference.
(§3) Procedure. BmrA represents 25% of the proteins present in the overexpression system used (E. coli, C41DE3). These membranes are prepared as described previously (Matar-Merheb, R. et al. ([11])). The membranes containing AcrB (approximately 20% of the membrane proteins, same expression system as BmrA) were prepared as described previously (Seeger, M. A. et al. ([21])). The detergents are used at 10 g/l unless indicated otherwise, and the proteins diluted at 2 g/l in a 20 mM Tris-HCl buffer, pH 8.0, 100 mM NaCl, 15% glycerol, with protease inhibitors (Roche) added thereto at an amount of one tablet/100 ml. The mixture (T) is incubated for 2 h at 4° C. then centrifuged for 1 h at 4° C. at 100 000×g in order to separate the extracted fraction (supernatant, S) from that which is not extracted (pellet). The supernatants are deposited on 10% SDS-PAGE and stained with Coomassie blue after migration. The foscholine 12, DDM and LMNG originate from Anatrace, the SDS and Triton X100 originate from Sigma-Aldrich.

BmrA [2] = target: T1, BmrA; experiment: Extraction of BmrA from membranes (SDS-PAGE of supernatant); design: species or system bacterial; overexpressed in E. coli C41DE3; settings: detergent 10 g/l unless indicated otherwise; 2 h at 4° C.
Description: as §1, §2, §3

[3] = Diameter of micelles by dynamic light scattering (DLS); format: physicochemical; settings: estimated micelle diameter by DLS; 30 mM tris-HCl, pH 8.0
Description: FIG. 5 depicts the dynamic light scattering (DLS) of clips, in intensity (%, column A on the left) and in number (%, column B on the right), as a function of the […] (nm). The estimated diameters are indicated on each panel (column A). Columns A and B, from top to bottom: compound 3.7c (10 mM, 5×CMC), compound 3.7d (10 mM, 5×CMC), compound 3.7e (2 mM, […]), compound 3.7f (10 mM, 500×CMC), compound 3.7h (1 mM, 100×CMC), compound 3.7j (2 mM, 100×CMC), compound 3.9a (1 mM, 50×CMC).
Another physicochemical parameter of the micelles of detergents is their diameter, assuming that they are spherical. This dimension is obtained by the light scattering (DLS) technique.
Procedure. The molecules of the invention tested were prepared in a range of concentrations extending from 0.1 to 1000×CMC in 30 mM tris-HCl, pH 8.0 and neutralized at this pH. The solutions are filtered on 0.22 μm. The measurement is carried out on 100 μl, in triplicate on a Zetasizer Nano-S from Malvern Instruments.

[4] = Critical micelle concentration (CMC) by DPH fluorescence; format: physicochemical
Description: FIG. 4 represents the fluorescence (%) of DPH (1,6-diphenyl-1,3,5-hexatriene) in the presence of increasing concentrations (0.0001 mM, 0.001 mM, 0.01 mM, 0.1 mM, 1 mM and 10 mM) of clips (compounds of the invention), exemplified with the compounds #3.7e (C13, points represented by squares) and 3.7f (C18, points represented by circles). The experiment is carried out in triplicates. In accordance with Chattopadhyay, A. & London, E ([22]), the CMC corresponds to the concentration at which the breakage in the slope is observed, here at 20 μM for 3.7f and 2 mM for 3.7e (black symbols).
Procedure. The molecules of the invention were prepared in a range of concentrations extending from 0.1 μM to 10 mM in 50 mM tris-HCl, pH 8.0 and neutralized at this pH. To 80 μl of each solution (triplicate), the same volume of 10 μM of 1,6-diphenyl-1,3,5-hexatriene (DPH, Sigma, D208000) is added, prepared at 100 μM in tetrahydrofuran then diluted 10-fold in H2O. The increase in the fluorescence of the DPH occurs when the latter find micelles of clips into which it can insert itself (Chattopadhyay, A. & London, E. Fluorimetric determination of critical micelle concentration avoiding interference from detergent charge. Anal Biochem 139, 408-412 (1984) ([22])). The fluorescence is read with a Xenius SAFAS fluorimeter by exciting at 358 nm and recording the fluorescence emission at 430 nm, with slits of 9 to 10 nm for the excitation and the emission and a gain of 100 to 150, depending on the cases.
Results. The CMC of the detergents is the concentration starting from which they associate with one another to form micelles, in which, in aqueous solution, the hydrophobic portions are grouped together at the center and the hydrophilic regions are exposed to the solvent. […] A typical result obtained with a compound 3.7 provided with a C13 (3.7e) or C18 ([…]) aliphatic chain is illustrated in FIG. 4.

## CCCCCCCCCCCCO[C@@H]1O[C@H](CO)[C@@H](O[C@H]2O[C@H](CO)[C@@H](O)[C@H](O)[C@H]2O)[C@H](O)[C@H]1O [DDM, n-dodecyl β-d-maltoside, reference compound]
BmrA [1]
  elution volume of BmrA: ~1.6 mL
AcrB
  extraction of AcrB: solubilize
BmrA [2]
  extraction of BmrA: solubilize

## CCCCCCCCCCCCCCCCCCC(=O)N[C@@H](COCc1cn(CCO[C@@H]2OC(CO)[C@@H](O[C@H]3OC(CO)[C@@H](O)C(O)C3O)C(O)C2O)nn1)C(=O)N[C@H](CCC(=O)O)C(=O)O (some centres unmarked) [Compound 3.7f]
[3]
  Ø, nm: 4.0 nm
AcrB
  extraction of AcrB: extracting
BmrA [2]
  extraction of BmrA: extracting
[4]; 50 mM tris-HCl, pH 8.0
  CMC: 0.02 mM
[4]; triplicates
  CMC (breakage in the slope of DPH fluorescence, FIG. 4): 20 µM
